Patent US8633251B2, “Derivatives of aminoalkanols, method of obtaining of aminoalkanols and their use” (Uniwersytet Jagiellonski, priority 2008, dated 2014)
Structures can show the parent of a compound that is named as a salt. Where two headings read alike, the source gives them in different places.

Legend:
[1] = system: neurotoxicity (rotarod); assay: Neurotoxicity test (TOX), rotarod, mice; format: in vivo
Method: (§1) In order to define anticonvulsant activity, screening tests were performed, using animal models of seizures. […] Each substance (after dissolving in methylcellulose) was normally tested in doses 30, 100, and 300 mg/kg body weight (b.w.) (mice) or in 30 and 50 mg/kg b.w. (rats) in two possible routes of administration: intraperitoneal (i.p.) or oral (p.o.). Appropriate tests were performed 0.5 and 4 h after administration of the compound. […] (mice) the tests were also performed in doses 10 and 3 mg/kg b.w.
It is performed with use of rotarod test. The animal is placed on a plastic rod (1 inch in diameter), rotating 6 rpm. The rod is placed on a level discouraging the animal to jump off. […] Neurotoxicity is stated if the animal cannot stay on the rod for 1 min. in any of 3 trials. Normally the test is performed in dose 30 mg/kg b.w. in 4 mice (0.5 h) and in 2 mice (4 h), in the dose 100 mg/kg b.w. in 8 mice (0.5 h) and in 4 mice (4 h) and in the dose 300 mg/kg b.w. in 4 mice (0.5 h) and 2 mice (4 h).

[2] = system: maximal electroshock seizures; assay: Maximum Electroshock Seizure (MES) test, mice; format: in vivo
Method: as §1
Maximum Electroshock Seizure (MES) test is an electric test, verifying activity towards generalized tonic-clonic seizures (grand mal epilepsy). […] Its procedure consists in administration to an animal a mentioned dose, and after 0.5 or 4 h attaching corneal electrodes (after anesthetic eye-drops: 0.5% tetracaine hydrochloride in 0.9% NaCl) and turning on electric current (60 Hz, 0.2 s, 50 mA (mice) or 150 mA (rats)). […] Normally, in the dose 30 mg/kg b.w. the test is done in 1 mouse after 0.5 or 4 h, in the dose 100 mg/kg b.w.—in 3 mice, and in the dose 300 mg/kg b.w.—in 1 mouse.

[3] = mice, dose 30 mg/kg b.w., time 0.5 h
[4] = mice, dose 100 mg/kg b.w., time 0.5 h
[5] = mice, dose 100 mg/kg b.w., time 4 h
[6] = mice, dose 300 mg/kg b.w., time 0.5 h
[7] = mice, dose 300 mg/kg b.w., time 4 h
[8] = mice, dose 100 mg/kg b.w., 0.5 h
[9] = mice, dose 300 mg/kg b.w., 0.5 h
[10] = Mus musculus, 0.5 h, read-out: MES, No. of protected animals/No. of used animals

`Cc1cc(C)c(C)c(OCCNC(C)CO)c1` (stereo not shown) [Compound 38, R,S-2N-[(2,3,5-trimethylphenoxy)ethyl]amino-1-propanol] was tested, and the “TOX, No. of animals exhibiting motor impairment/no. of used animals” value ([1]; mouse, in vivo, 300 mg/kg) was 4/4, the “MES, No. of protected animals/No. of used animals” value [2, 3] was 1/1 and the “MES, No. of protected animals/No. of used animals” value [2, 4] was 3/3. The “MES, No. of protected animals/No. of used animals” value [2, 5] was 2/2.
In the case of `CCC(CO)NCCOc1cc(C)cc(C)c1C` (stereo not shown) [Compound 39, R,S-2N-[(2,3,5-trimethylphenoxy)ethyl]amino-1-butanol], the “TOX, No. of animals exhibiting motor impairment/no. of used animals” value ([1]; mouse, in vivo, 100 mg/kg) is reported as 7/8, the “TOX, No. of animals exhibiting motor impairment/no. of used animals” value ([1]; mouse, in vivo, 300 mg/kg) is reported as 4/4 and the “MES, No. of protected animals/No. of used animals” value [2, 3] is reported as 1/1. For the same molecule, the “MES, No. of protected animals/No. of used animals” value [2, 4] was 3/3 and the “MES, No. of protected animals/No. of used animals” value [2, 5] was 1/3.
`CC[C@H](CO)NCCOc1cc(C)cc(C)c1C` [Compound 40, R-(−)-2N-[(2,3,5-trimethylphenoxy)ethyl]amino-1-butanol] was tested, and the “TOX, No. of animals exhibiting motor impairment/no. of used animals” value [1, 4] was 4/8, the “TOX, No. of animals exhibiting motor impairment/no. of used animals” value [1, 6] was 4/4 and the responders at 30 mg/kg ([2]; Mus musculus, mice, dose 30 mg/kg b.w., time 0.5 h, read-out: MES, No. of protected animals/No. of used animals) was 100%. The responders at 100 mg/kg ([2]; Mus musculus, mice, dose 100 mg/kg b.w., time 0.5 h, read-out: MES, No. of protected animals/No. of used animals (converted)) was 66.7% and the responders at 100 mg/kg ([2]; Mus musculus, mice, dose 100 mg/kg b.w., time 4 h, read-out: MES, No. of protected animals/No. of used animals (converted)) was 33.3%.
In the case of `CC[C@@H](CO)NCCOc1cc(C)cc(C)c1C` [Compound 41, S-(+)-2N-[(2,3,5-trimethylphenoxy)ethyl]amino-1-butanol], the “TOX, No. of animals exhibiting motor impairment/no. of used animals” value ([1]; mouse, in vivo, 30 mg/kg) is reported as 3/4, the “TOX, No. of animals exhibiting motor impairment/no. of used animals” value ([1]; mouse, in vivo, 100 mg/kg) is reported as 7/8 and the “TOX, No. of animals exhibiting motor impairment/no. of used animals” value ([1]; mouse, in vivo, 300 mg/kg) is reported as 4/4. For the same molecule, the “MES, No. of protected animals/No. of used animals” value [2, 3] was 1/1 and the “MES, No. of protected animals/No. of used animals” value [2, 4] was 3/3.
In the case of `Cc1cc(C)c(C)c(OCCNCC(O)c2ccccc2)c1.Cl` (stereo not shown) [Compound 42, R,S-2N-[(2,3,5-trimethylphenoxy)ethyl]amino-1-phenylethanol hydrochloride], the “TOX, No. of animals exhibiting motor impairment/no. of used animals” value [1, 3] is reported as 3/4, the “TOX, No. of animals exhibiting motor impairment/no. of used animals” value ([1]; mice, dose 30 mg/kg b.w., time 4 h) is reported as 1/2 and the “TOX, No. of animals exhibiting motor impairment/no. of used animals” value [1, 4] is reported as 8/8. The “TOX, No. of animals exhibiting motor impairment/no. of used animals” value [1, 5] was 4/4, the “TOX, No. of animals exhibiting motor impairment/no. of used animals” value [1, 6] was 4/4 and the “TOX, No. of animals exhibiting motor impairment/no. of used animals” value [1, 7] was 1/1. The “MES, No. of protected animals/No. of used animals” value [2, 4] was 3/3, the “MES, No. of protected animals/No. of used animals” value [2, 5] was 1/3 and the “MES, No. of protected animals/No. of used animals” value [2, 6] was 1/1.
For `Cc1cc(C)c(OCCN[C@H](C)CO)c(C)c1` [Compound 43, R-(−)-2N-[(2.4.6-trimethylphenoxy)ethyl]amino-1-propanol], the “TOX, No. of animals exhibiting motor impairment/no. of used animals” value [1, 3] was 3/4, the “TOX, No. of animals exhibiting motor impairment/no. of used animals” value [1, 4] was 8/8 and the “TOX, No. of animals exhibiting motor impairment/no. of used animals” value [1, 6] was 4/4. The “MES, No. of protected animals/No. of used animals” value [2, 4] was 3/3.
`Cc1cc(C)c(OCCNCC(O)c2ccccc2)c(C)c1` (stereo not shown) [Compound 45, R,S-2N-[(2,4,6-trimethylphenoxy)ethyl]amino-1-phenylethanol] was tested, and the “TOX, No. of animals exhibiting motor impairment/no. of used animals” value [1, 6] was 3/4, the “MES, No. of protected animals/No. of used animals” value [2, 4] was 3/3 and the “MES, No. of protected animals/No. of used animals” value [2, 6] was 1/1. The “MES, No. of protected animals/No. of used animals” value [2, 7] was 1/1.
In the case of `Cc1cccc(C)c1OCCCN[C@H](C)CO` [Compound 52, R-(−)-2N-[(2,6-dimethylphenoxy)propyl]amino-1-propanol hydrochloride], the “TOX, No. of animals exhibiting motor impairment/no. of used animals” value ([1]; mice, dose 10 mg/kg b.w., 0.5 h) is reported as 1/4, the “TOX, No. of animals exhibiting motor impairment/no. of used animals” value [1, 8] is reported as 6/8 and the “TOX, No. of animals exhibiting motor impairment/no. of used animals” value ([1]; mice, dose 100 mg/kg b.w., 4 h) is reported as 1/4. The “TOX, No. of animals exhibiting motor impairment/no. of used animals” value [1, 9] was 3/4, the responders at 30 mg/kg [2, 10] was 100% and the responders at 100 mg/kg [2, 10] was 66.7%. For the same molecule, the responders at 300 mg/kg ([2]; Mus musculus, 4 h, read-out: MES, No. of protected animals/No. of used animals) was 100%.
In the case of `Cc1cccc(C)c1OCC(=O)NC(C)CO` (stereo not shown) [Compound 60, R,S-2N-[(2,6-dimethylphenoxy)acetyl]amino-1-propanol], the “TOX, No. of animals exhibiting motor impairment/no. of used animals” value [1, 8] is reported as 2/8, the “TOX, No. of animals exhibiting motor impairment/no. of used animals” value ([1]; mice, dose 100 mg/kg b.w., 4 h) is reported as 2/4 and the “TOX, No. of animals exhibiting motor impairment/no. of used animals” value [1, 9] is reported as 4/4. The “MES, No. of protected animals/No. of used animals” value [2, 9] was 1/1.
`Cc1cccc(C)c1OCC(=O)N[C@@H](C)CO` [Compound 62, S-(−)-2N-[(2,6-dimethylphenoxy)acetyl]amino-1-propanol] was tested, and the “TOX, No. of animals exhibiting motor impairment/no. of used animals” value ([1]; mice, dose 30 mg/kg b.w., 0.5 h) was 1/4, the “TOX, No. of animals exhibiting motor impairment/no. of used animals” value [1, 8] was 3/8 and the “TOX, No. of animals exhibiting motor impairment/no. of used animals” value ([1]; mice, dose 100 mg/kg b.w., 4 h) was 1/4. For the same molecule, the “TOX, No. of animals exhibiting motor impairment/no. of used animals” value [1, 9] was 3/4, the “TOX, No. of animals exhibiting motor impairment/no. of used animals” value ([1]; mice, dose 300 mg/kg b.w., 4 h) was 1/2 and the “MES, No. of protected animals/No. of used animals” value [2, 9] was 1/1. For the same molecule, the “MES, No. of protected animals/No. of used animals” value ([2]; mice, dose 300 mg/kg b.w., 4 h) was 1/1.
For `CCC(O)CNC(=O)COc1c(C)cccc1C` (stereo not shown) [Compound 63, R,S-1N-[(2,6-dimethylphenoxy)acetyl]amino-2-butanol], the “TOX, No. of animals exhibiting motor impairment/no. of used animals” value [1, 9] was 4/4 and the “MES, No. of protected animals/No. of used animals” value [2, 9] was 1/1.
With `Cc1cccc(Cl)c1OCC(=O)NC(C)CO` (stereo not shown) [Compound 69, R,S-2N-[(2-chlor-6-methylphenoxy)acetyl]amino-1-propanol] the “TOX, No. of animals exhibiting motor impairment/no. of used animals” value [1, 8] was 1/8, the “TOX, No. of animals exhibiting motor impairment/no. of used animals” value [1, 9] was 1/4 and the “MES, No. of protected animals/No. of used animals” value [2, 9] was 1/1.
In the case of `Cc1cccc(Cl)c1OCC(=O)N[C@H](C)CO` [Compound 70, R-(−)-2N-[(2-chlor-6-methylphenoxy)acetyl]amino-1-propanol], the “TOX, No. of animals exhibiting motor impairment/no. of used animals” value [1, 9] is reported as 3/4 and the “MES, No. of protected animals/No. of used animals” value [2, 9] is reported as 1/1.
`Cc1cccc(Cl)c1OCC(=O)N[C@@H](C)CO` [Compound 71, S-(+)-2N-[(2-chlor-6-methylphenoxy)acetyl]amino-1-propanol] was tested, and the “TOX, No. of animals exhibiting motor impairment/no. of used animals” value [1, 9] was 4/4 and the “MES, No. of protected animals/No. of used animals” value [2, 9] was 1/1.
For “R,S-1N-[(2-chlor-6-methylphenoxy)ethyl]amino-2-propanol [Compound 23]”, the “TOX, No. of animals exhibiting motor impairment/no. of used animals” value [1, 4] was 7/8, the “TOX, No. of animals exhibiting motor impairment/no. of used animals” value [1, 6] was 4/4 and the “MES, No. of protected animals/No. of used animals” value [2, 3] was 1/1. For the same molecule, the “MES, No. of protected animals/No. of used animals” value [2, 4] was 1/1.
“R,S-1N-[(4-chlor-2-methylphenoxy)ethyl]amino-2-propanol [Compound 32]” was tested, and the “TOX, No. of animals exhibiting motor impairment/no. of used animals” value [1, 4] was 7/8, the “TOX, No. of animals exhibiting motor impairment/no. of used animals” value [1, 6] was 4/4 and the “TOX, No. of animals exhibiting motor impairment/no. of used animals” value [1, 7] was 1/1. For the same molecule, the “MES, No. of protected animals/No. of used animals” value [2, 3] was 1/1, the “MES, No. of protected animals/No. of used animals” value [2, 4] was 3/3 and the “MES, No. of protected animals/No. of used animals” value [2, 5] was 1/3. The “MES, No. of protected animals/No. of used animals” value [2, 6] was 1/1.
“R,S-2N-[(2,3-dimethylphenoxy)ethyl]amino-1-propanol [Compound 1]” was tested, and the “TOX, No. of animals exhibiting motor impairment/no. of used animals” value ([1]; mouse, in vivo, 100 mg/kg) was 7/8, the “TOX, No. of animals exhibiting motor impairment/no. of used animals” value ([1]; mouse, in vivo, 300 mg/kg) was 4/4 and the “MES, No. of protected animals/No. of used animals” value [2, 4] was 3/3.
“R,S-2N-[(4-chlor-2-methylphenoxy)ethyl]amino-1-propanol [Compound 33]” was tested, and the “TOX, No. of animals exhibiting motor impairment/no. of used animals” value [1, 4] was 4/8, the “TOX, No. of animals exhibiting motor impairment/no. of used animals” value [1, 6] was 4/4 and the “MES, No. of protected animals/No. of used animals” value [2, 4] was 3/3.
In the case of “R-(+)-2N-[(2,6-dimethylphenoxy)acetyl]amino-1-propanol [Compound 61]”, the “TOX, No. of animals exhibiting motor impairment/no. of used animals” value [1, 9] is reported as 2/4 and the “MES, No. of protected animals/No. of used animals” value [2, 9] is reported as 1/1.
